Source: patent publication US12714675B2, “Solid dosage form production” (UNIVERSITY OF LANCASHIRE, priority 2016, dated 2026)

Experiment: optimization of highly concentrated dipyridamole solution for liquid capsule feed (solubility in solvent systems)
Assay type: physicochemical
Details: drug solution in PEG 400
Method: A model drug, dipyridamole, was chosen to test the suitability of this system to provide immediate and extended drug release. Its fluoresce colour and ease of detection allows focusing on the development process. It was decided that the drug solution PEG 400 (10 mg/ml) is the maximum concentration that can be readily prepared.

Compound: OCCN(CCO)c1nc(N2CCCCC2)c2nc(N(CCO)CCO)nc(N3CCCCC3)c2n1 [dipyridamole]
- maximum concentration that can be readily prepared: 10 mg/mL
